Source: patent publication US10238656B2, “Combination therapy for cancer” (Eli Lilly and Company, priority 2014, dated 2019)
Where “and” joins values, the source holds several entries; their conditions need not be identical. Equal entries are not always repeated.

Columns and labels:
[1] = tested on: NCI-H2122 xenograft tumors; experiment: Antitumor efficacy in NCI-H2122 xenograft model; format: in vivo, female Hsd athymic nude mice; details: Day 45
Description: (§1) Grow the human NSCLC line NCI-H441 or NCI-H2122 in RPMI 1640 medium+10% fetal bovine serum. Harvest sub-confluent cells with trypsin and rinse twice with growth medium without serum. For subcutaneous tumors, initiate growth by subcutaneous injection of 5×10^6 cells in a 1:1 mixture of Hank's balanced salt solution (HBSS) and Matrigel (BD Bioscience, Franklin Lakes, N.J.) in the rear flank of each subject animal. When mean tumors volumes reach approximately 150-200 mm^3 in size, randomize the animals by tumor size and body weight by randomization techniques well known in the art and place into their respective treatment groups using the number of animals per group as indicated.
Capture tumor size and body weight using Web Director. Estimate tumor volume (V) by using the formula: V=0.536L×W^2 where L=larger of measured diameter and W=smaller of perpendicular diameter. Transform the tumor volume data to a log scale to equalize variance across time and treatment groups. […] Calculate relative changes in tumor volume (% T/C) using the tumor volume measurements taken nearest to the last day of dosing with Compound A, whereas the baseline tumor volume is the volume recorded on or just prior to first day of dosing. […] Tumor growth inhibition is observed in those instances where the calculated values for % T/C are less than 100% whereby greater inhibition results in smaller % T/C values. […]

[2] = tested on: NCI-H441 xenograft tumors; experiment: Antitumor efficacy in NCI-H441 xenograft model, Study 2; format: in vivo, female Hsd athymic nude mice
Description: as §1
(§2) Capture tumor size and body weight using Web Director. Estimate tumor volume (V) by using the formula: V=0.536L×W^2 where L=larger of measured diameter and W=smaller of perpendicular diameter. Transform the tumor volume data to a log scale to equalize variance across time and treatment groups. Analyze the log volume data with a two-way repeated measures analysis of variance by time and treatment using the MIXED procedures in SAS software (Version 9.3). The correlation model for the repeated measures is Spatial Power. Compare treated groups compared to the control group at each time point. Use the MIXED procedure also separately for each treatment group to calculate adjusted means and standard errors at each time point. Both analyses account for the autocorrelation within each animal and the loss of data that occurred when animals with large tumors were removed from the study early. Plot the adjusted means and standard errors for each treatment group versus time. Calculate relative changes in tumor volume (% T/C) using the tumor volume measurements taken nearest to the last day of dosing with Compound A, whereas the baseline tumor volume is the volume recorded on or just prior to first day of dosing. Calculate % T/C values using the formula % T/C=100×ΔT/ΔC, whereby T=mean tumor volume of the compound treated group, ΔT=mean tumor volume of the compound treated group minus the mean tumor volume on the baseline day, C=mean tumor volume of the control (vehicle) group, and ΔC=mean tumor volume of the control group minus the mean tumor volume on the baseline day. Tumor growth inhibition is observed in those instances where the calculated values for % T/C are less than 100% whereby greater inhibition results in smaller % T/C values. If ΔT was <0, then a tumor regression value was calculated instead of % T/C whereby % Regression=100×ΔT/Tinitial such that Tinitial=the grand mean of the tumor volume for all the treatment groups. Any negative values for % T/C listed are values for % Regression.
(§3) Assess antitumor efficacy of the combination of DC101 and Compound A by measuring tumor volume by three dimensional caliper measurements twice a week during the course of the study. Measure body weight twice weekly during the course of the study, as a general indicator of tolerability.
Formulations for Compound A and DC101: Formulate Compound A on a weekly basis in 1% hydroxyethyl cellulose (HEC) in 25 mM phosphate buffer (PB) at a pH of 2 and store at 4° C. Solubilize DC101 in phosphate buffered saline and store at 4° C.
Control Group: administer to the animals in the control group, both vehicles used for Compound A and DC101 according to the same schedules for each compound, respectively.
For the monotherapy groups, treat the animals with the desired compound as directed and with the vehicle for the compound not being dosed by following the schedule for the non-dosed compound.
Treat female Hsd athymic nude mice (n=7) bearing NCI-H441 xenograft tumors with Compound A by oral gavage (PO) once daily for 28 days at a dose of 50 or 75 mg/kg using 0.2 mL/dose. Administer Compound A starting after the mean tumor volumes reach approximately 150-200 mm^3 in size (day 36 after tumor implantation) and end treatment 28 days later (on day 63). […]

[3] = Body weight (tolerability), NCI-H441 xenograft Study 2; format: in vivo, female Hsd athymic nude mice
Method: as §3
(§4) Treat female Hsd athymic nude mice (n=7) bearing NCI-H441 xenograft tumors with Compound A by oral gavage (PO) once daily for 28 days at a dose of 50 or 75 mg/kg using 0.2 mL/dose. Administer Compound A starting after the mean tumor volumes reach approximately 150-200 mm^3 in size (day 36 after tumor implantation) and end treatment 28 days later (on day 63). Measure tumor volume and body weight twice a week for the duration of the treatment period.
(§5) Treat female Hsd athymic nude mice (n=7) bearing NCI-H441 xenograft tumors with DC101 twice weekly for four weeks by intraperitoneal injection at a dose 20 mg/kg. Administer DC101 starting after the mean tumor volumes reach approximately 150-200 mm^3 in size (day 36 after tumor implantation). Measure tumor volume and body weight twice a week for the duration of the treatment period.
Treat female Hsd athymic nude mice (n=7) bearing NCI-H441 xenograft tumors with Compound A by oral gavage once daily for 28 days at a dose of 50 mg/kg or 75 mg/kg using 0.2 mL/dose and intraperitoneal inject DC101 twice weekly at a dose of 20 mg/kg. […]

[4] = tested on: NCI-H441 xenograft tumors; experiment: Antitumor efficacy in NCI-H441 xenograft model, Study 1; format: in vivo, female Hsd athymic nude mice
Description: as §1
as §2, with “Regression. […]” for “Regression.”

[5] = Body weight (tolerability), NCI-H2122 xenograft study; format: in vivo, female Hsd athymic nude mice; details: Compound A 50 or 75 mg/kg monotherapy
Method: as §3
as §4, with “(n=8)” for “(n=7)”, “NCI-H2122” for “NCI-H441”, “16” for “36”, “on” for “28 days later (on”, “43.” for “63).”
as §5, with “(n=8)” for “(n=7)”, “NCI-H2122” for “NCI-H441”, “DC101” for “DC101 twice weekly for four weeks”, “16” for “36”, “implantation) and continue twice weekly for four weeks.” for “implantation).”
Treat female Hsd athymic nude mice (n=8) bearing NCI-H2122 xenograft tumors with Compound A by oral gavage (PO) once daily for 28 days at a dose of 50 or 75 mg/kg using 0.2 mL/dose and intraperitoneal inject DC101 twice weekly at a dose of 20 mg/kg. […]

[6] = Body weight (tolerability), NCI-H441 xenograft Study 1; format: in vivo, female Hsd athymic nude mice; details: baseline (day 14) versus day 42
Method: as §3
as §4, with “(n=8)” for “(n=7)”, “gavage” for “gavage (PO)”, “100” for “75”, “15” for “36”, “42).” for “63).”
Treat female Hsd athymic nude mice (n=8) bearing NCI-H441 xenograft tumors with DC101 twice weekly for four weeks by intraperitoneal injection at doses of 10, 20 or 40 mg/kg. Administer DC101 starting after the mean tumor volumes reach approximately 150-200 mm^3 in size (day 15 after tumor implantation) and end on day 39. Measure tumor volume and body weight twice a week for the duration of the treatment period.
Treat female Hsd athymic nude mice (n=8) bearing NCI-H441 xenograft tumors with Compound A by oral gavage once daily for 28 days at a dose of 50 mg/kg using 0.2 mL/dose and intraperitoneal inject DC101 twice weekly at a dose of 20 mg/kg. […]

[7] = tested on: Stage IV NSCLC; experiment: Phase 1b study of abemaciclib in combination with ramucirumab, tumor response; format: in vivo, human; parameters: key: PR is partial response;; SD is stable disease;; PD is progressive disease;; NDR is no data reported; details: preliminary
Method: This study is a multicenter, nonrandomized, open-label, dose-escalation Phase 1b study of oral dosing of [5-(4-ethyl-piperazin-1-ylmethyl)-pyridin-2-yl]-[5-fluoro-4-(7-fluoro-3-isopropyl-2-methyl-3H-benzoimidazol-5-yl)-pyrimidin-2-yl]-amine at 100 mg, 150 mg, or 200 mg every 12 (±3) hours on Days 1 through 21 of a 21-day cycle. in combination with ramucirumab administered at 10 mg/kg over a 60-minute IV infusion followed by a 1-hour observation period on Day 1 of a 21-day cycle for patients with Stage IV NSCLC.
The primary objective of this study is to evaluate the safety and tolerability of [5-(4-ethyl-piperazin-1-ylmethyl)-pyridin-2-yl]-[5-fluoro-4-(7-fluoro-3-isopropyl-2-methyl-3H-benzoimidazol-5-yl)-pyrimidin-2-yl]-amine when administered orally in combination with ramucirumab to patients with Stage IV NSCLC using Common Terminology Criteria for Adverse Events (CTCAE version 4.0, NCI 2009).
The secondary objectives of the study are to document the antitumor activity of [5-(4-ethyl-piperazin-1-ylmethyl)-pyridin-2-yl]-[5-fluoro-4-(7-fluoro-3-isopropyl-2-methyl-3H-benzoimidazol-5-yl)-pyrimidin-2-yl]-amine when given in combination with ramucirumab; to determine the pharmacokinetics (PK) of [5-(4-ethyl-piperazin-1-ylmethyl)-pyridin-2-yl]-[5-fluoro-4-(7-fluoro-3-isopropyl-2-methyl-3H-benzoimidazol-5-yl)-pyrimidin-2-yl]-amine when given in combination with ramucirumab; and to characterize changes in patient-reported pain and disease-related symptoms collected via the MD Anderson Symptom Inventory-Lung Cancer (MDASI-LC).
[5-(4-Ethyl-piperazin-1-ylmethyl)-pyridin-2-yl]-[5-fluoro-4-(7-fluoro-3-isopropyl-2-methyl-3H-benzoimidazol-5-yl)-pyrimidin-2-yl]-amine is supplied as capsules at 100 mg, 150 mg, or 200 mg for oral administration.
Ramucirumab is supplied in a sterile, preservative-free solution for infusion of ramucirumab formulated in an aqueous solution at a concentration of […] (500 mg/50-mL vial). The buffer contains 10 mM histidine, 75 mM sodium chloride, 133 mM glycine, and 0.01% polysorbate 80, pH 6.0. Ramucirumab is supplied in single-use 50-mL nominal volume glass vials.
The first dose of ramucirumab is dependent upon the patient's baseline body weight in kilograms. Subsequent doses of ramucirumab must be recalculated if there is a ≥10% change (increase or decrease) in body weight from last dose calculation; subsequent doses may be recalculated if there is a <10% change (increase or decrease) in body weight from last dose calculation.

[8] = Compound A 50 mg/kg monotherapy
[9] = Compound A 75 mg/kg monotherapy
[10] = Compound A 50 mg/kg monotherapy, end of treatment period
[11] = abemaciclib 150 mg every 12 hours + ramucirumab 10 mg/kg IV Day 1 of 21-day cycle, individual patients 1-3
[12] = abemaciclib 200 mg every 12 hours + ramucirumab 10 mg/kg IV Day 1 of 21-day cycle, individual patients 4-8

## CCN1CCN(Cc2ccc(Nc3ncc(F)c(-c4cc(F)c5nc(C)n(C(C)C)c5c4)n3)nc2)CC1.CS(=O)(=O)O [Compound A, [5-(4-Ethyl-piperazin-1-ylmethyl)-pyridin-2-yl]-[5-fluoro-4-(7-fluoro-3-isopropyl-2-methyl-3H-benzoimidazol-5-yl)-pyrimidin-2-yl]-amine methanesulfonate]
[1]; Compound A 50 mg/kg PO once daily 28 days
  % T/C: 64.3%
[1]; Compound A 75 mg/kg PO once daily 28 days
  % T/C: 37.3%
[2]; Compound A 50 mg/kg PO once daily 28 days, Day 67
  % T/C: 7.0%
[2]; [8]
  combined frequency for stable disease and partial response (disease control rate): 4/7
  mice achieving complete regression: 2/7
[2]; Compound A 75 mg/kg PO once daily 28 days, Day 67
  regression: −4.8%
[2]; [9]
  combined frequency for stable disease and partial response (disease control rate): 6/7
  mice achieving complete regression: 3/7
[3]; [8]
  maximum relative body weight loss: 5.5%
[3]; [9]
  maximum relative body weight loss: 5.1%
[4]; [10]
  partial response (animals): 6/8
  stable disease (animals): 2/8
[4]; Compound A 100 mg/kg monotherapy, end of treatment period
  partial response (animals): 8/8
[4]; Compound A 100 mg/kg oral gavage once daily 28 days, study day 42
  mean percent regression: −22.8%
[5]
  changes in relative body weight: not statistically different from the control group
[6]; Compound A 50 mg/kg
  maximum relative body weight loss: 2.7%
[6]; Compound A 100 mg/kg
  maximum relative body weight loss: 4.7%

## CCN1CCN(Cc2ccc(Nc3ncc(F)c(-c4cc(F)c5nc(C)n(C(C)C)c5c4)n3)nc2)CC1 [abemaciclib, [5-(4-Ethyl-piperazin-1-ylmethyl)-pyridin-2-yl]-[5-fluoro-4-(7-fluoro-3-isopropyl-2-methyl-3H-benzoimidazol-5-yl)-pyrimidin-2-yl]-amine]
[7]; [11]
  Overall Response: SD and PR and PD
  Target Response: SD and PR
[7]; [12]
  Overall Response: SD (3×) and PD and PR
  Target Response: SD (2×) and PD and PR
